Assay results published in patent US20240158446A1, “CYCLIC COMPOUND HAVING SELECTIVE INHIBITORY ACTION ON KRAS OVER HRAS AND NRAS” (CHUGAI SEIYAKU KABUSHIKI KAISHA, priority 2021, published 2024).

Experiments:
[1] = target: GDP-bound HRAS wild-type protein (Homo sapiens, UniProt P01112); assay: Binding to HRAS by surface plasmon resonance (SPR), Single Cycle Kinetics; details: for HRAS/KRAS (ratio of KD value for HRAS to KD value for KRAS): SPR, GDP-bound HRAS wild-type protein vs GDP-bound KRAS wild-type protein; for HRAS/KRAS (ratio of KD value with respect to GDP-bound HRAS wild-type protein to KD value with respect to KRAS): SPR KD ratio HRAS/KRAS, class symbols
[2] = target: GDP-bound NRAS wild-type protein (Homo sapiens, UniProt P01111); assay: Binding to NRAS by surface plasmon resonance (SPR), Single Cycle Kinetics; details: for NRAS/KRAS (ratio of KD value for NRAS to KD value for KRAS): SPR, GDP-bound NRAS wild-type protein vs GDP-bound KRAS wild-type protein; for NRAS/KRAS (ratio of KD value with respect to GDP-bound NRAS wild-type protein to KD value with respect to KRAS): SPR KD ratio NRAS/KRAS, class symbols
Chain of GDP-bound NRAS wild-type protein (P01111 whole entry): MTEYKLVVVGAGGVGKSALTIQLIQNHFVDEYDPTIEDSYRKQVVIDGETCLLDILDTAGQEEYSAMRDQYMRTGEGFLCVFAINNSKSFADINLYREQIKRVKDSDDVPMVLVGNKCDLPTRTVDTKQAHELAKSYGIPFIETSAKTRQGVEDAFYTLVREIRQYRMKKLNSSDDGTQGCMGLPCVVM

Chain of GDP-bound HRAS wild-type protein (P01112 whole entry): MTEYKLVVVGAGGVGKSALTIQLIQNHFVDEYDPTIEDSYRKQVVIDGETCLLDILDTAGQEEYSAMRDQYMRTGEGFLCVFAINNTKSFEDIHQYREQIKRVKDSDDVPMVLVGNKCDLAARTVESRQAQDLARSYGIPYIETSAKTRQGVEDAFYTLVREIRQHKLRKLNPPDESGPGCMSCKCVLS

Compound | HRAS/KRAS (ratio of KD value for HRAS to KD value for KRAS) [1] | NRAS/KRAS (ratio of KD value for NRAS to KD value for KRAS) [2] | HRAS/KRAS (ratio of KD value with respect to GDP-bound HRAS wild-type protein to KD value with respect to KRAS) [1] | NRAS/KRAS (ratio of KD value with respect to GDP-bound NRAS wild-type protein to KD value with respect to KRAS) [2]
CCC[C@@H]1C[C@H]2C(=O)NC3(CCCC3)C(=O)N(C)[C@@H](C3CCCC3)C(=O)N(C)[C@H](C(=O)N(C)C)CC(=O)N(C)[C@@H](CC)C(=O)N[C@@H]([C@@H](C)CC)C(=O)N(C)CC(=O)N(C)[C@H]3C/C=C\CCN(C3=O)[C@@H](Cc3ccc(C)cc3)C(=O)N(C)CC(=O)N[C@@H](CCc3cc(F)c(C(F)(F)F)c(F)c3)C(=O)N2C1 [PP2227] | A (a compound having 10 or more and less than 20 is denoted as A) | A (a compound having 10 or more and less than 20 is denoted as A) |  | 
CCC[C@@H]1C[C@H]2C(=O)NC3(CCC3)C(=O)N(C)[C@@H](C3CCCC3)C(=O)N(C)[C@H](C(=O)N(C)C)CC(=O)N(C)[C@@H](CC)C(=O)N[C@@H]([C@@H](C)CC)C(=O)N(C)CC(=O)N(C)[C@H]3C/C=C\CCN(C3=O)[C@@H](Cc3ccc(C)cc3)C(=O)N(C)CC(=O)N[C@@H](CCc3cc(F)c(C(F)(F)F)c(F)c3)C(=O)N2C1 [PP2233] | A (a compound having 10 or more and less than 20 is denoted as A) | A (a compound having 10 or more and less than 20 is denoted as A) |  | 
CCC[C@H]1C(=O)N[C@@H]([C@@H](C)CC)C(=O)N(C)CC(=O)N(C)[C@H]2C/C=C\CCN(C2=O)[C@@H](Cc2ccc(C)cc2)C(=O)N(C)CC(=O)N[C@@H](CCc2ccc(C(F)(F)F)c(Cl)c2)C(=O)N2C[C@H](CC)C[C@H]2C(=O)NC2(CCC2)C(=O)N(C)[C@@H](C2CCCC2)C(=O)N(C)[C@H](C(=O)N(C)C)CC(=O)N1C [PP2237] | A (a compound having 10 or more and less than 20 is denoted as A) | A (a compound having 10 or more and less than 20 is denoted as A) |  | 
CCC[C@H]1C(=O)N[C@@H](C2CCC2)C(=O)N(C)CC(=O)N(C)[C@H]2C/C=C\CCN(C2=O)[C@@H](Cc2ccc(C)cc2)C(=O)N(C)CC(=O)N[C@@H](CCc2ccc(C(F)(F)F)c(F)c2)C(=O)N2C[C@H](OCC)C[C@H]2C(=O)NC2(CC(C)(C)C2)C(=O)N(C)[C@@H](C2CCC2)C(=O)N(C)[C@H](C(=O)N(C)C)CC(=O)N1C [PP2242] | A (a compound having 10 or more and less than 20 is denoted as A) | A (a compound having 10 or more and less than 20 is denoted as A) |  | 
CCO[C@@H]1C[C@H]2C(=O)NC3(CCC3)C(=O)N(C)[C@@H](C3CCCC3)C(=O)N(C)[C@H](C(=O)N(C)CC)CC(=O)N(C)[C@H]3CCCCCCc4ccc(cc4)C[C@@H](C(=O)N(C)CC(=O)N[C@@H](CCc4ccc(C(F)(F)F)c(OC)c4)C(=O)N2C1)N1CC/C=C\C[C@@H](C1=O)N(C)C(=O)CN(C)C(=O)[C@H]([C@@H](C)CC)NC3=O [PP2263] | A (a compound having 10 or more and less than 20 is denoted as A) | A (a compound having 10 or more and less than 20 is denoted as A) |  | 
CCOC[C@H]1C(=O)N[C@@H]([C@@H](C)CC)C(=O)N(C2CC2)CC(=O)N(C)[C@H]2C/C=C\CCN(C2=O)[C@@H](Cc2ccc(C(F)(F)F)cc2)C(=O)N(C)CC(=O)N[C@@H](CCc2ccc(C(F)(F)F)c(OC)c2)C(=O)N2C[C@H](OCC)C[C@H]2C(=O)N(C)C2(CCC2)C(=O)N(C)[C@@H](C(CC)CC)C(=O)N(C)[C@H](C(=O)N(C)C)CC(=O)N1C [PP2315] | A (a compound having 10 or more and less than 20 is denoted as A) | A (a compound having 10 or more and less than 20 is denoted as A) |  | 
CCCOC[C@H]1C(=O)N[C@@H]([C@@H](C)CC)C(=O)N(C2CC2)CC(=O)N(C)[C@H]2C/C=C\CCN(C2=O)[C@@H](Cc2ccc(C(F)(F)F)cc2)C(=O)N(C)CC(=O)N[C@@H](CCc2ccc(C(F)(F)F)c(OC)c2)C(=O)N2C[C@H](OCC)C[C@H]2C(=O)N(C)C2(CCC2)C(=O)N(C)[C@@H](C2CCCC2)C(=O)N(C)[C@H](C(=O)N(C)C)CC(=O)N1C [PP2318] | A (a compound having 10 or more and less than 20 is denoted as A) | A (a compound having 10 or more and less than 20 is denoted as A) |  | 
CCCOC[C@H]1C(=O)N[C@@H]([C@@H](C)CC)C(=O)N(C)CC(=O)N(C)[C@H]2C/C=C\CCN(C2=O)[C@@H](Cc2ccc(C)cc2)C(=O)N(C)CC(=O)N[C@@H](CCc2ccc(C(F)(F)F)c(OC)c2)C(=O)N2C[C@H](OCC)C[C@H]2C(=O)N(C)C2(CCC2)C(=O)N(C)[C@@H](C(CC)CC)C(=O)N(C)[C@H](C(=O)N(C)C)CC(=O)N1C [PP2323] | A (a compound having 10 or more and less than 20 is denoted as A) | A (a compound having 10 or more and less than 20 is denoted as A) |  | 
CCC[C@H]1C(=O)N[C@@H]([C@@H](C)CC)C(=O)N(C2CC2)CC(=O)N(C)[C@H]2C/C=C\CCN(C2=O)[C@@H](Cc2ccc(C)cc2)C(=O)N(C)CC(=O)N[C@@H](CCc2ccc(C(F)(F)F)c(OC)c2)C(=O)N2C[C@H](OCC)C[C@H]2C(=O)N(C)C2(CCC2)C(=O)N(C)[C@@H](C(CC)CC)C(=O)N(C)[C@H](C(=O)N(C)C)CC(=O)N1C [PP2325] | A (a compound having 10 or more and less than 20 is denoted as A) | A (a compound having 10 or more and less than 20 is denoted as A) |  | 
CCCOC[C@H]1C(=O)N[C@@H]([C@@H](C)CC)C(=O)N(C)CC(=O)N(C)[C@H]2C/C=C\CCN(C2=O)[C@@H](Cc2ccc(C)cc2)C(=O)N(C)CC(=O)N[C@@H](CCc2ccc(C(F)(F)F)c(OC)c2)C(=O)N2C[C@H](OCC)C[C@H]2C(=O)N(C)C2(CCC2)C(=O)N(C)[C@@H](C2CCCC2)C(=O)N(C)[C@H](C(=O)N(C)C)CC(=O)N1C [PP2326] | B (a compound having 3 or more and less than 10 is denoted as B) | A (a compound having 10 or more and less than 20 is denoted as A) |  | 
CCC[C@H]1C(=O)N[C@@H]([C@@H](C)CC)C(=O)N(C2CC2)CC(=O)N(C)[C@H]2C/C=C\CCN(C2=O)[C@@H](CC2CCCCC2)C(=O)N(C)CC(=O)N[C@@H](CCc2ccc(C(F)(F)F)c(OC)c2)C(=O)N2C[C@H](OCC)C[C@H]2C(=O)N(C)C2(CCC2)C(=O)N(C)[C@@H](C2CCCC2)C(=O)N(C)[C@H](C(=O)N(C)C)CC(=O)N1C [PP2340] | B (a compound having 3 or more and less than 10 is denoted as B) | B (a compound having 3 or more and less than 10 is denoted as B) |  | 
CCOC[C@H]1C(=O)N[C@@H]([C@@H](C)CC)C(=O)N(C2CC2)CC(=O)N(C)[C@H]2C/C=C\CCN(C2=O)[C@@H](CC2CCCCC2)C(=O)N(C)CC(=O)N[C@@H](CCc2ccc(C(F)(F)F)c(OC)c2)C(=O)N2C[C@H](OCC)C[C@H]2C(=O)N(C)C2(CCC2)C(=O)N(C)[C@@H](C2CCCC2)C(=O)N(C)[C@H](C(=O)N(C)C)CC(=O)N1C [PP2342] | A (a compound having 10 or more and less than 20 is denoted as A) | A (a compound having 10 or more and less than 20 is denoted as A) |  | 
CCOC[C@H]1C(=O)N[C@@H]([C@@H](C)CC)C(=O)N(C2CC2)CC(=O)N(C)[C@H]2C/C=C\CCN(C2=O)[C@@H](CC2CCC(F)(F)CC2)C(=O)N(C)CC(=O)N[C@@H](CCc2ccc(C(F)(F)F)c(OC)c2)C(=O)N2C[C@H](OCC)C[C@H]2C(=O)N(C)C2(CCC2)C(=O)N(C)[C@@H](C(CC)CC)C(=O)N(C)[C@H](C(=O)N(C)C)CC(=O)N1C [PP2351] | A (a compound having 10 or more and less than 20 is denoted as A) | A (a compound having 10 or more and less than 20 is denoted as A) |  | 
CCCOC[C@H]1C(=O)N[C@@H]([C@@H](C)CC)C(=O)N(C2CC2)CC(=O)N(C)[C@H]2C/C=C\CCN(C2=O)[C@@H](CC2CCC(F)(F)CC2)C(=O)N(C)CC(=O)N[C@@H](CCc2ccc(C(F)(F)F)c(OC)c2)C(=O)N2C[C@H](OCC)C[C@H]2C(=O)N(C)C2(CCC2)C(=O)N(C)[C@@H](C2CCCC2)C(=O)N(C)[C@H](C(=O)N(C)C)CC(=O)N1C [PP2354] | A (a compound having 10 or more and less than 20 is denoted as A) | A (a compound having 10 or more and less than 20 is denoted as A) |  | 
CCO[C@@H]1C[C@H]2C(=O)NC3(CC(C)(C)C3)C(=O)N(C)[C@@H](C(CC)CC)C(=O)N(C)[C@H](C(=O)N(C)C)CC(=O)N(C)[C@H]3CC/C=C/c4ccc(cc4)C[C@@H](C(=O)N(C)CC(=O)N[C@@H](CCc4cc(F)c(C(F)(F)F)c(F)c4)C(=O)N2C1)N1CC/C=C\C[C@@H](C1=O)N(C)C(=O)CN(C)C(=O)[C@H]([C@@H](C)CC)NC3=O [PP2586] |  |  | B (a compound having 3 or more and less than 10 is denoted as B) | A (a compound having 10 or more and less than 20 is denoted as A)
CCO[C@@H]1C[C@H]2C(=O)NC3(CC(C)(C)C3)C(=O)N(C)[C@@H](C(CC)CC)C(=O)N(C)[C@H](C(=O)N(C)C)CC(=O)N(C)[C@H]3CC/C=C/c4ccc(cc4)C[C@@H](C(=O)N(C)CC(=O)N[C@@H](CCc4ccc(Cl)c(Cl)c4)C(=O)N2C1)N1CC/C=C\C[C@@H](C1=O)N(C)C(=O)CN(C)C(=O)[C@H]([C@@H](C)CC)NC3=O [PP2589] |  |  | A (a compound having 10 or more and less than 20 is denoted as A) | AA (a compound having 20 or more is denoted as AA)
